Experimental data as given in PubChem BioAssay AID328 (DTP/NCI, 2004).
Values joined by “and” are separate entries in the source; they are usually repeats but may differ in a detail not shown here. Equal entries are not always repeated. Inconclusive results and toxic doses are left out. Non-standard residues stand in square brackets, D forms with d. Residues, ends and D or L forms follow the SMILES beside them. ξ: configuration not given here. *: point of attachment. Boc = CC(C)(C)OC(=O)*; ξP = O=C(O)C1CCCN1

Tested on: BDF1 mice, P388 leukemia ip, median survival T/C
Test: NCI In Vivo Anticancer Drug Screen. Data for tumor model P388 Leukemia (intraperitoneal) in B6D2F1 (BDF1) mice
Settings: endpoint: median survival time, higher = longer survival
Procedure, shortened: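 Transplantable tumour in mice; compound vs vehicle dosing; survival scored; ratio of treated to control reported.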

[1] = dose: 25.0 mg/kg/injection, schedule: Q01DX009 (ip), vehicle: saline with Tween-80
[2] = dose: 50.0 mg/kg/injection, schedule: Q01DX009 (ip), vehicle: saline with Tween-80
[3] = dose: 100.0 mg/kg/injection, schedule: Q01DX009 (ip), vehicle: saline with Tween-80
[4] = dose: 100.0 mg/kg/injection, schedule: Q04DX003 (ip), vehicle: saline with Tween-80
[5] = dose: 200.0 mg/kg/injection, schedule: Q01DX009 (ip), vehicle: saline with Tween-80
[6] = dose: 200.0 mg/kg/injection, schedule: Q04DX003 (ip), vehicle: saline with Tween-80
[7] = dose: 400.0 mg/kg/injection, schedule: Q04DX003 (ip), vehicle: saline with Tween-80
[8] = dose: 100.0 mg/kg/injection, schedule: Q04DX003 (ip), vehicle: Klucel (hydroxypropylcellulose) (HPC)
[9] = dose: 200.0 mg/kg/injection, schedule: Q04DX003 (ip), vehicle: Klucel (hydroxypropylcellulose) (HPC)
[10] = dose: 100.0 mg/kg/injection, schedule: Q01DX009 (ip), vehicle: Klucel (hydroxypropylcellulose) (HPC)
[11] = dose: 100.0 mg/kg/injection, schedule: Q01DX009 (ip), vehicle: saline
[12] = dose: 200.0 mg/kg/injection, schedule: Q01DX009 (ip), vehicle: saline

Structure (SMILES): Cn1c(=O)[nH]c(=O)c2nc(-c3cccnc3)c(-c3ccncc3)nc21
- T/C (dose: 100.0 mg/kg/injection, schedule: Q04DX002 (ip), vehicle: saline with Tween-80): 101 % of control
- T/C (dose: 200.0 mg/kg/injection, schedule: Q04DX002 (ip), vehicle: saline with Tween-80): 99 % of control
- T/C (dose: 400.0 mg/kg/injection, schedule: Q04DX002 (ip), vehicle: saline with Tween-80): 110 % of control

Structure (SMILES): O=C1C(Br)=Cc2cccc3cccc1c23
- T/C [1]: 111 % of control
- T/C [2]: 105 % of control
- T/C [3]: 107 % of control
- T/C [4]: 95 % of control
- T/C [5]: 230 % of control and 107 % of control
- T/C [6]: 104 % of control
- T/C (dose: 400.0 mg/kg/injection, schedule: Q01DX009 (ip), vehicle: saline with Tween-80): 100 % of control
- T/C [7]: 104 % of control

Structure (SMILES): CCCCSc1ncnc2c1ncn2C1CCCCO1 (configuration not stated)
- T/C (dose: 100.0 mg/kg/injection, schedule: Q01DX009 (ip), vehicle: saline sonified): 90 % of control
- T/C [4]: 87 % of control
- T/C (dose: 200.0 mg/kg/injection, schedule: Q01DX009 (ip), vehicle: saline sonified): 122 % of control
- T/C [6]: 100 % of control
- T/C (dose: 400.0 mg/kg/injection, schedule: Q01DX009 (ip), vehicle: saline sonified): 100 % of control
- T/C [7]: 100 % of control

Structure (SMILES): O=C(NC1CCCCC1)OCC#CC#CCOC(=O)NC1CCCCC1
- T/C [8]: 95 % of control
- T/C [9]: 100 % of control

Structure (SMILES): CC1=NN(c2ccccc2)C(=O)C1C(=S)SC1CC(=O)NC1=O (configuration not stated)
- T/C [2]: 117 % of control
- T/C [3]: 103 % of control
- T/C [5]: 108 % of control

Structure (SMILES): COC1CC(C)C(OC)C2=CC(=O)C=C(NC(=O)/C(C)=C/C=C\C(C)C(OC(N)=O)/C(C)=C\C(C)C1OC)C2=O (configuration not stated)
- T/C (dose: 5.0 mg/kg/injection, schedule: Q01DX009 (ip), vehicle: saline + alcohol): 150 % of control
- T/C (dose: 10.0 mg/kg/injection, schedule: Q01DX009 (ip), vehicle: saline + alcohol): 171 % of control

Structure (SMILES): CCCCCC[C@H]([C@H](C)O)n1cnc2c(N)ncnc21
- T/C (dose: 15.0 mg/kg/injection, schedule: Q01DX009 (ip), vehicle: saline): 105 % of control
- T/C (dose: 22.0 mg/kg/injection, schedule: Q01DX009 (ip), vehicle: saline): 105 % of control
- T/C (dose: 33.0 mg/kg/injection, schedule: Q01DX009 (ip), vehicle: saline): 104 % of control
- T/C (dose: 50.0 mg/kg/injection, schedule: Q01DX009 (ip), vehicle: saline): 101 % of control

Structure (SMILES): Cc1cc(Cc2cc(C)c(C)c(C)c2C)c(C)c(C)c1C
- T/C (dose: 12.5 mg/kg/injection, schedule: Q01DX009 (ip), vehicle: saline with Tween-80): 93 % of control
- T/C [1]: 100 % of control
- T/C [2]: 98 % of control
- T/C [3]: 97 % of control

Structure (SMILES): CC1(C)N=C(N)N=C(N)N1c1ccc(OCCCNC(=O)Nc2cccc(S(=O)(=O)F)c2)c(Cl)c1
- T/C [1]: 177 % of control
- T/C (dose: 25.0 mg/kg/injection, schedule: Q04DX003 (ip), vehicle: saline with Tween-80): 150 % of control
- T/C [2]: 200 % of control
- T/C (dose: 50.0 mg/kg/injection, schedule: Q04DX003 (ip), vehicle: saline with Tween-80): 150 % of control
- T/C (dose: 66.0 mg/kg/injection, schedule: Q01DX009 (ip), vehicle: saline with Tween-80): 177 % of control
- T/C [3]: 86 % of control and 213 % of control

Structure (SMILES): Cc1cc(C)c(C(=O)C=O)c(C)c1
- T/C (dose: 25.0 mg/kg/injection, schedule: Q01DX009 (ip), vehicle: Klucel (hydroxypropylcellulose) (HPC)): 99 % of control
- T/C (dose: 50.0 mg/kg/injection, schedule: Q01DX009 (ip), vehicle: Klucel (hydroxypropylcellulose) (HPC)): 104 % of control
- T/C [10]: 110 % of control

Structure (SMILES): C=C(COC(C)(C)C)CN(C)C
- T/C (dose: 25.0 mg/kg/injection, schedule: Q01DX009 (ip), vehicle: acetone): 92 % of control
- T/C (dose: 50.0 mg/kg/injection, schedule: Q01DX009 (ip), vehicle: acetone): 100 % of control
- T/C (dose: 100.0 mg/kg/injection, schedule: Q01DX009 (ip), vehicle: acetone): 96 % of control

Structure (SMILES): COc1ccccc1CC(C)N (configuration not stated)
- T/C (dose: 20.0 mg/kg/injection, schedule: Q01DX009 (ip), vehicle: saline with Tween-80): 87 % of control
- T/C (dose: 80.0 mg/kg/injection, schedule: Q01DX009 (ip), vehicle: saline with Tween-80): 91 % of control

Structure (SMILES): Nc1nc(Cc2ccccc2)c(CCCNc2ccccc2)c(=O)[nH]1
- T/C (dose: 6.25 mg/kg/injection, schedule: Q01DX009 (ip), vehicle: saline with Tween-80): 107 % of control
- T/C [1]: 98 % of control
- T/C [2]: 96 % of control

Structure (SMILES): CCOC(=O)CCN(C)C
- T/C [11]: 102 % of control
- T/C [12]: 95 % of control
- T/C (dose: 400.0 mg/kg/injection, schedule: Q01DX009 (ip), vehicle: saline): 102 % of control

Structure (SMILES): COC1OC(CO)C(O)C(O)C1O (configuration not stated)
- T/C (dose: 6.25 mg/kg/injection, schedule: Q01DX009 (ip), vehicle: saline): 97 % of control
- T/C (dose: 12.5 mg/kg/injection, schedule: Q01DX009 (ip), vehicle: saline): 106 % of control
- T/C (dose: 25.0 mg/kg/injection, schedule: Q01DX009 (ip), vehicle: saline): 97 % of control
- T/C [11]: 104 % of control
- T/C [12]: 106 % of control

Structure (SMILES): COC(=O)C(Cc1ccc(N(CCCl)CCCl)cc1)N=NNc1nc[nH]c1C(N)=O (configuration not stated)
- T/C (dose: 14.0 mg/kg/injection, schedule: Q04DX003 (ip), vehicle: saline): 154 % of control
- T/C (dose: 33.0 mg/kg/injection, schedule: Q04DX003 (ip), vehicle: saline): 195 % of control
- T/C (dose: 50.0 mg/kg/injection, schedule: Q04DX003 (ip), vehicle: saline): 213 % of control

Structure (SMILES): C=C(C)C(=O)O[C@H]1CC2=C[C@@H](C[C@@]3(C)O[C@@H]3[C@H]3OC(=O)C(=C)[C@@H]31)OC2=O
- T/C (dose: 2.2 mg/kg/injection, schedule: Q01DX010 (ip), vehicle: carboxymethylcellulose (CMC)): 113 % of control
- T/C (dose: 2.5 mg/kg/injection, schedule: Q01DX009 (ip), vehicle: saline + alcohol): 109 % of control
- T/C (dose: 3.3 mg/kg/injection, schedule: Q01DX010 (ip), vehicle: carboxymethylcellulose (CMC)): 118 % of control
- T/C (dose: 5.0 mg/kg/injection, schedule: Q01DX010 (ip), vehicle: carboxymethylcellulose (CMC)): 113 % of control
- T/C (dose: 7.5 mg/kg/injection, schedule: Q01DX010 (ip), vehicle: carboxymethylcellulose (CMC)): 152 % of control
- T/C (dose: 7.5 mg/kg/injection, schedule: Q01DX010 (ip), vehicle: saline): 118 % of control
- T/C (dose: 10.0 mg/kg/injection, schedule: Q01DX009 (ip), vehicle: saline): 120 % of control
- T/C (dose: 15.0 mg/kg/injection, schedule: Q01DX010 (ip), vehicle: carboxymethylcellulose (CMC)): 157 % of control
- T/C (dose: 15.0 mg/kg/injection, schedule: Q01DX010 (ip), vehicle: saline): 109 % of control
- T/C (dose: 20.0 mg/kg/injection, schedule: Q01DX009 (ip), vehicle: saline + alcohol): 122 % of control
- T/C (dose: 30.0 mg/kg/injection, schedule: Q01DX010 (ip), vehicle: carboxymethylcellulose (CMC)): 115 % of control
- T/C (dose: 30.0 mg/kg/injection, schedule: Q01DX010 (ip), vehicle: saline): 118 % of control
- T/C (dose: 40.0 mg/kg/injection, schedule: Q01DX009 (ip), vehicle: saline): 160 % of control
- T/C (dose: 60.0 mg/kg/injection, schedule: Q01DX010 (ip), vehicle: saline): 90 % of control

Structure (SMILES): C[C@]12CCC(=O)C=C1CC[C@H]1[C@@H]3CCC(=O)O[C@@]3(C)CC(=O)[C@@]12F
- T/C [10]: 111 % of control
- T/C [8]: 90 % of control
- T/C (dose: 200.0 mg/kg/injection, schedule: Q01DX009 (ip), vehicle: Klucel (hydroxypropylcellulose) (HPC)): 96 % of control
- T/C [9]: 109 % of control
- T/C (dose: 400.0 mg/kg/injection, schedule: Q01DX009 (ip), vehicle: Klucel (hydroxypropylcellulose) (HPC)): 100 % of control
- T/C (dose: 400.0 mg/kg/injection, schedule: Q04DX003 (ip), vehicle: Klucel (hydroxypropylcellulose) (HPC)): 86 % of control

Structure (SMILES): Cc1c[nH]c(=O)[nH]c1=O
- T/C (dose: 390.0 mg/kg/injection, schedule: Q04DX003 (ip), vehicle: saline with Tween-80): 98 % of control
- T/C (dose: 390.0 mg/kg/injection, schedule: Q## X003 (ip), vehicle: saline with Tween-80): 98 % of control
- T/C (dose: 520.0 mg/kg/injection, schedule: Q04DX003 (ip), vehicle: saline with Tween-80): 93 % of control
- T/C (dose: 520.0 mg/kg/injection, schedule: Q## X003 (ip), vehicle: saline with Tween-80): 93 % of control

Structure (SMILES): COC(=O)CNC(=O)C1CCCN1C(=O)OC(C)(C)C (configuration not stated) (Boc-[ξP]-Gly-OMe)
- T/C (dose: 100.0 mg/kg/injection, schedule: Q04DX003 (ip), vehicle: saline): 100 % of control
- T/C (dose: 200.0 mg/kg/injection, schedule: Q04DX003 (ip), vehicle: saline): 105 % of control
- T/C (dose: 400.0 mg/kg/injection, schedule: Q04DX003 (ip), vehicle: saline): 95 % of control
